Experimental data reported in publication PMC7606587 (Nuclear medicine and biology, 2020).
Read-outs that look alike come from different tables or passages of the source.

System: C4–2B prostate cancer xenografts
Assay type: in vivo, athymic (BALB/c nu/nu) mice
Settings: for blood clearance (in words): 1 and 4 h pi
[1] = C4–2B xenograft, 4 h pi, tail vein injection
[2] = C4–2B xenograft, time point not stated at the place (study at 1, 4, 24 h pi)

tumor concentration relative to [131I]16a (C4–2B xenograft)	tumor concentration [1]	tumor concentration [2]	blood clearance (in words)	highest spleen concentration (1 h pi)	tumor concentration relative to blood concentration (1 h pi)	kidney concentration (4 h pi)	tumor concentration relative to blood concentration (4 h pi)	kidney concentration (4 h pi, listed as 16a)	tumor concentration (C4–2B xenograft, 1 h pi)	tumor concentration (C4–2B xenograft, at 1 and 4 h pi)	concentration in all the tissues except for the intestine (1 h pi)	intestine concentration (1 h pi)	tumor uptake / tumor targeting (in words) (C4–2B xenograft)	Substance
~ 4 ×	~ 15 %ID/g	14–15 %ID/g	–	–	–	–	–	–	–	–	–	–	–	3-B10H9-dioxa-5-LuG-dPEG4-Ph-Lys-Ac [[^131I]16b]
–	~ 4 %ID/g	~ 4 %ID/g	rapid blood clearance	9 %ID/g	2.3 ×	~ 94 %ID/g	4.7 ×	94 %ID/g	~ 4 % ID/g	< 5 %ID/g	–	–	–	3-B10H9-dioxa-5-LuG-dPEG12-Ph-Lys-Ac [[^131I]16a]
–	–	–	rapid blood clearance	–	–	–	–	–	–	–	lower than 2 % ID/g	12 %ID/g	essentially no tumor uptake	3-B10H9-dioxa-5-dPEG12CO2H-Ph-Lys-Ac [[^125I]9a]
